pKd: −log10 of the molar value.
Legend:
DYRK1A [1] = molecular target: T1, DYRK1A (Homo sapiens, UniProt Q13627); test: HiBiT split luciferase assay of targeted degradation of DYRK1A in Flp-In T-REx 293 cells; format: cell-based; settings: 300 nM compound, 24 h, HiBiT-tagged DYRK1A in Flp-In T-REx 293 cells, normalized to vehicle; read-out: Relative Degradation at 300 nM DYRK1A
T1 construct: purchased Eurofins; host or cells: E. coli BL21-derived (T7 phage display) or HEK-293
Source text: The Flp-In T-REx 293 Cell Line and the pcDNA5/FRT/TO vector (Invitrogen) were used to generate stable cell clones for tetracyclin-inducible expression of DYRK1A and DYRK1B. These cells contain a single stably integrated Flp recognition target (FRT) site, which allows for site-specific integration of the expression cassette by the Flp (Flippase) recombinase. DYRK1 constructs were designed to contain a C-terminal HiBiT tag for quantitative detection of HiBiT-tagged proteins in cellular lysates with the help a split luciferase assay (Nano-Glo HiBiT Lytic Detection System, Promega). To monitor the targeted degradation of DYRK1A or DYRK1B, cells were seeded in 96-well plates (10,000 cells/per well) and treated with doxycyclineinal concentration 2 μg/ml) to induce DYRK1 expression. Compounds with presumed PROTAC activity were administered 24 h after seeding. After further incubation for 24 h, cells were grossly and microscopically inspected for overt toxicity. Cells were lysed in 100 μL ice-cold passive lysis buffer (PLB, Promega) by orbital shaking (30 min on ice) before lysates were centrifuged in PCR tube (20 min 20,000 g, RT). A 10 μl aliquot of the supernatant was subjected to the HiBiT lytic assay. Luminescence was quantified in an Orion Microplate luminometer (Berthold Detection System, Germany). All compounds were tested in duplicate or triplicate wells (technical replicates) and at least two independent experiments. Relative degradation was calculated by normalization to vehicle-treated control samples.

DYRK1A [2] = molecular target: T1, DYRK1A; test: KdELECT kinase binding assay (Eurofins), DYRK1A; settings: 11-point 3-fold dilution series, qPCR readout; read-out: Binding Affinity (Kd) DYRK1A
Procedure: (§1) KDs were obtained from Eurofins who used the following procedure: Kinase tagged T7 phase strains were prepared in an E. coli host derived from the BL21 strain. E. coli were grown to log-phase and infected with T7 phage and incubated with shaking at 32° C. until lysis. The lysates were centrifuged and filtered to remove cell debris. The remaining kinases were produced in HEK-293 cells and subsequently tagged with DNA for qPCR detection. Streptavidin-coated magnetic beads were treated with biotinylated small molecule ligands for 30 minutes at room temperature to generate affinity resins for kinase assays. The liganded beads were blocked with excess biotin and washed with locking buffer (SeaBlock (Pierce), 1% BSA, 0.05% Tween 20, 1 mM DTT) to remove unbound ligand and to reduce non-specific binding. Binding reactions were assembled by combining kinases, liganded affinity beads, and test compounds in 1× binding buffer (20% SeaBlock, 0.17× PBS, 0.05% Tween 20, 6 mM DTT). Test compounds were prepared as 111X stocks in 100% DMSO. Kds were determined using a 11-poin 3-fold compound dilution series with three DMSO control points. All compounds for Kd measurements are distributed by acoustic transfer (non-contact dispensing) in 100% DMSO. The compounds were then diluted directly into the assays such that the final concentration of DMSO was 0.9%. All reactions performed in polypropylene 384-well plate. Each was a final volume of 0.02 mL. The assay plates were incubated at room temperature with shaking for 1 hour and the affinity beads were washed with wash buffer (1×PBS, 0.05% Tween 20). The beads were then resuspended in elution buffer (1X PBS, 0.05% Tween 20, 0.5 µM nonbiotinylated affinity ligand) and incubated at room temperature with shaking for 30 minutes. The kinase concentration in the eluates was measured by qPCR.

DYRK1B = molecular target: T2, DYRK1B (Homo sapiens, UniProt Q9Y463); test: KdELECT kinase binding assay (Eurofins), DYRK1B; settings: 11-point 3-fold dilution series, qPCR readout; read-out: Binding Affinity (Kd) DYRK1B
T2 construct: purchased Eurofins; host or cells: E. coli BL21-derived (T7 phage display) or HEK-293
Procedure: as §1

T2 sequence (Q9Y463 whole entry, species assumed): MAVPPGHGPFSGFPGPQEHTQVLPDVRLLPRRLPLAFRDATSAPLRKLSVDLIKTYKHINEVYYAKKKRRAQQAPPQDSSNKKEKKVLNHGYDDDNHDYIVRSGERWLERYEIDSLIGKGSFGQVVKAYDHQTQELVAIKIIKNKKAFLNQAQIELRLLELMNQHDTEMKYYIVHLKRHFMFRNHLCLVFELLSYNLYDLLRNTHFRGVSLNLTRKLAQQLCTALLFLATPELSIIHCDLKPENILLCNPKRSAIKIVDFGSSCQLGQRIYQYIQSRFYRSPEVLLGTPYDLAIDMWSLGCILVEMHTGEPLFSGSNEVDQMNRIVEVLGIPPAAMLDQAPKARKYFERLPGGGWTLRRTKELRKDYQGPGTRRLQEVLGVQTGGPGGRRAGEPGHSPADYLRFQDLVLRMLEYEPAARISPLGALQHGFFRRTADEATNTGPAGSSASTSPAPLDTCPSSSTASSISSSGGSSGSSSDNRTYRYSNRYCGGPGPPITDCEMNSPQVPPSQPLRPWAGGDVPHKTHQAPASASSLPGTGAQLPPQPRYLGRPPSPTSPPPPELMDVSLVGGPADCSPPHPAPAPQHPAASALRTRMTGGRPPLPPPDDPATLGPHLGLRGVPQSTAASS

Compound | inhibition at 0.3 µM (DYRK1A [1]) [%] | pKd (DYRK1A [2]) | pKd (DYRK1B)
Cc1nc2ccc(-c3ccnc(N)c3)nc2n1-c1ccc(N2CCN(CCOCCOCCOCCC(=O)NC3CN(c4ccc5c(c4)C(=O)N(C4CCC(=O)NC4=O)C5=O)C3)CC2)c(F)c1 (stereo not drawn) [Compound 8, 3-(2-(2-(2-(4-(4-(5-(2-aminopyridin-4-yl)-2-methyl-3H-imidazo[4,5-b]pyridin-3-yl)-2-fluorophenyl)piperazin-1-yl)ethoxy)ethoxy)ethoxy)-N-(1-(2-(2,6-dioxopiperidin-3-yl)-1,3-dioxoisoindolin-5-yl)azetidin-3-yl)propanamide] | < 30 | > 8.00 | –
Cc1nc2ccc(-c3ccnc(N)c3)nc2n1-c1ccc(N2CCN(CCOCCOCCOCCC(=O)N3CCN(c4ccc5c(c4)C(=O)N(C4CCC(=O)NC4=O)C5=O)CC3)CC2)c(F)c1 (stereo not drawn) [Compound 9, 5-(4-(3-(2-(2-(2-(4-(4-(5-(2-aminopyridin-4-yl)-2-methyl-3H-imidazo[4,5-b]pyridin-3-yl)-2-fluorophenyl)piperazin-1-yl)ethoxy)ethoxy)ethoxy)propanoyl)piperazin-1-yl)-2-(2,6-dioxopiperidin-3-yl)isoindoline-1,3-dione] | < 30 | > 8.00 | –
Cc1nc2ccc(-c3ccnc(N)c3)nc2n1-c1ccc(N2CCN(C(=O)CCCCCN3CCN(Cc4ccc(CNc5cccc6c5CN(C5CCC(=O)NC5=O)C6=O)cc4)CC3)CC2)c(F)c1 (stereo not drawn) [Compound 15, 3-(4-((4-((4-(6-(4-(4-(5-(2-aminopyridin-4-yl)-2-methyl-3H-imidazo[4,5-b]pyridin-3-yl)-2-fluorophenyl)piperazin-1-yl)-6-oxohexyl)piperazin-1-yl)methyl)benzyl)amino)-1-oxoisoindolin-2-yl)piperidine-2,6-dione] | < 30 | > 8.00 | –
Cc1nc2ccc(-c3ccnc(N)c3)nc2n1-c1ccc(N2CCN(C(=O)CN3CCC(CC(=O)N4CCC(n5cc(CNc6cccc7c6C(=O)N(C6CCC(=O)NC6=O)C7=O)cn5)CC4)CC3)CC2)c(F)c1 (stereo not drawn) [Compound 17, 4-(((1-(1-(2-(1-(2-(4-(4-(5-(2-aminopyridin-4-yl)-2-methyl-3H-imidazo[4,5-b]pyridin-3-yl)-2-fluorophenyl)piperazin-1-yl)-2-oxoethyl)piperidin-4-yl)acetyl)piperidin-4-yl)-1H-pyrazol-4-yl)methyl)amino)-2-(2,6-dioxopiperidin-3-yl)isoindoline-1,3-dione] | < 30 | > 8.00 | –
Cc1nc2ccc(-c3ccnc(N)c3)nc2n1-c1cc(F)c(N2CCN(CC#Cc3ccc(N4CCC(C(=O)N5CCC(n6cc(COc7ccc(C8CCC(=O)NC8=O)cc7)cn6)CC5)CC4)nc3)CC2)c(F)c1 (stereo not drawn) [Compound 34, 3-(4-((1-(1-(1-(5-(3-(4-(4-(5-(2-aminopyridin-4-yl)-2-methyl-3H-imidazo[4,5-b]pyridin-3-yl)-2,6-difluorophenyl)piperazin-1-yl)prop-1-yn-1-yl)pyridin-2-yl)piperidine-4-carbonyl)piperidin-4-yl)-1H-pyrazol-4-yl)methoxy)phenyl)piperidine-2,6-dione] | – | > 8.00 | > 8.00
Cc1nc2ccc(-c3ccnc(N)c3)nc2n1-c1cc(F)c(N2CCN(C3CCN(CC#Cc4ccc(N5CCC(C(=O)N6CCC(n7cc(CNc8cccc9c8C(=O)N(C8CCC(=O)NC8=O)C9=O)cn7)CC6)CC5)nc4)CC3)CC2)c(F)c1 (stereo not drawn) [Compound 36, 4-(((1-(1-(1-(5-(3-(4-(4-(4-(5-(2-aminopyridin-4-yl)-2-methyl-3H-imidazo[4,5-b]pyridin-3-yl)-2,6-difluorophenyl)piperazin-1-yl)piperidin-1-yl)prop-1-yn-1-yl)pyridin-2-yl)piperidine-4-carbonyl)piperidin-4-yl)-1H-pyrazol-4-yl)methyl)amino)-2-(2,6-dioxopiperidin-3-yl)isoindoline-1,3-dione] | – | > 8.00 | > 8.00
Cc1nc2ccc(-c3ccnc(N)c3)nc2n1-c1cc(F)c(N2C[C@@H](C)N(CC#Cc3ccc(N4CCC(C(=O)N5CCC(n6cc(CNc7cccc8c7C(=O)N(C7CCC(=O)NC7=O)C8=O)cn6)CC5)CC4)nc3)[C@@H](C)C2)c(F)c1 (stereo partly drawn) [Compound 37, 4-(((1-(1-(1-(5-(3-((2S,6R)-4-(4-(5-(2-aminopyridin-4-yl)-2-methyl-3H-imidazo[4,5-b]pyridin-3-yl)-2,6-difluorophenyl)-2,6-dimethylpiperazin-1-yl)prop-1-yn-1-yl)pyridin-2-yl)piperidine-4-carbonyl)piperidin-4-yl)-1H-pyrazol-4-yl)methyl)amino)-2-(2,6-dioxopiperidin-3-yl)isoindoline-1,3-dione] | – | > 8.00 | 7.00 to 8.00

Now from value to molecule:

inhibition at 0.3 µM (DYRK1A [1]) [%] | pKd (DYRK1A [2]) | pKd (DYRK1B) | Compound
> 60 | – | – | Cc1nc2ccc(-c3ccnc(N)c3)nc2n1-c1ccc(N2CCN(CC#Cc3ccc(N4CCC(O)(C(=O)N5CCC(n6cc(CNc7cccc8c7C(=O)N(C7CCC(=O)NC7=O)C8=O)cn6)CC5)CC4)nc3)CC2)c(F)c1 (stereo not drawn) [Compound 33, 4-(((1-(1-(1-(5-(3-(4-(4-(5-(2-aminopyridin-4-yl)-2-methyl-3H-imidazo[4,5-b]pyridin-3-yl)-2-fluorophenyl)piperazin-1-yl)prop-1-yn-1-yl)pyridin-2-yl)-4-hydroxypiperidine-4-carbonyl)piperidin-4-yl)-1H-pyrazol-4-yl)methyl)amino)-2-(2,6-dioxopiperidin-3-yl)isoindoline-1,3-dione]
– | > 8.00 | 7.00 to 8.00 | COc1cc(-n2c(C)nc3ccc(-c4ccnc(N)c4)nc32)ccc1N1CCN(CCC#Cc2ccc(N3CCC(C(=O)N4CCC(n5cc(CNc6cccc7c6C(=O)N(C6CCC(=O)NC6=O)C7=O)cn5)CC4)CC3)nc2)CC1 (stereo not drawn) [Compound 38, 4-(((1-(1-(1-(5-(4-(4-(4-(5-(2-aminopyridin-4-yl)-2-methyl-3H-imidazo[4,5-b]pyridin-3-yl)-2-methoxyphenyl)piperazin-1-yl)but-1-yn-1-yl)pyridin-2-yl)piperidine-4-carbonyl)piperidin-4-yl)-1H-pyrazol-4-yl)methyl)amino)-2-(2,6-dioxopiperidin-3-yl)isoindoline-1,3-dione]
– | > 8.00 | > 8.00 | Cc1nc2ccc(-c3ccnc(N)c3)nc2n1-c1cc(F)c(N2CCN(C3CN(CC#Cc4ccc(N5CCC(C(=O)N6CCC(n7cc(CNc8cccc9c8C(=O)N(C8CCC(=O)NC8=O)C9=O)cn7)CC6)CC5)nc4)C3)CC2)c(F)c1 (stereo not drawn) [Compound 39, 4-(((1-(1-(1-(5-(3-(3-(4-(4-(5-(2-aminopyridin-4-yl)-2-methyl-3H-imidazo[4,5-b]pyridin-3-yl)-2,6-difluorophenyl)piperazin-1-yl)azetidin-1-yl)prop-1-yn-1-yl)pyridin-2-yl)piperidine-4-carbonyl)piperidin-4-yl)-1H-pyrazol-4-yl)methyl)amino)-2-(2,6-dioxopiperidin-3-yl)isoindoline-1,3-dione]
– | > 8.00 | 7.00 to 8.00 | Cc1nc2ccc(-c3ccnc(N)c3)nc2n1-c1cc(F)c(N2CC3(CN(CC#Cc4ccc(N5CCC(C(=O)N6CCC(n7cc(CNc8cccc9c8C(=O)N(C8CCC(=O)NC8=O)C9=O)cn7)CC6)CC5)nc4)C3)C2)c(F)c1 (stereo not drawn) [Compound 40, 4-(((1-(1-(1-(5-(3-(6-(4-(5-(2-aminopyridin-4-yl)-2-methyl-3H-imidazo[4,5-b]pyridin-3-yl)-2,6-difluorophenyl)-2,6-diazaspiro[3.3]heptan-2-yl)prop-1-yn-1-yl)pyridin-2-yl)piperidine-4-carbonyl)piperidin-4-yl)-1H-pyrazol-4-yl)methyl)amino)-2-(2,6-dioxopiperidin-3-yl)isoindoline-1,3-dione]

Reference: US20260183407A1, “DYRK/CLK PROTACS AND USES THEREOF” (Arizona Board of Regents on Behalf of the University of …, priority 2022, published 2026)
